Measured values: patent publication US9850283B2, “Macrocyclic inhibitors of the PD-1/PD-L1 and CD80(B7-1)/PD-L1 protein/protein interactions” (BRISTOL-MYERS SQUIBB COMPANY, priority 2013, dated 2017)
pIC50: −log10 of the molar value. Like-named read-outs stand apart in the source and are kept apart here. Positions of bridges follow the written chain, without caps; N, C: chain ends. Non-standard residues stand in square brackets, D forms with d. Residues, ends and D or L forms follow the SMILES beside them. Phe(3,4,5-F3) = N[C@@H](Cc1cc(F)c(F)c(F)c1)C(=O)O; Trp(5-OH) = N[C@@H](Cc1c[nH]c2ccc(O)cc12)C(=O)O; Phe(4-Cl) = N[C@@H](Cc1ccc(Cl)cc1)C(=O)O; NMeF = CN[C@@H](Cc1ccccc1)C(=O)O; NMeNle = CCCC[C@H](NC)C(=O)O; Dap = NC[C@H](N)C(=O)O; Sar = CNCC(=O)O

Experiments:
[1] = biological target: T1, Human PD-L1/PD-1 (Homo sapiens, UniProt Q9NZQ7); assay: HTRF PD-1-Ig/PD-L1-His binding assay (human PD-L1)
T1 construct: made in house; host or cells: HEK293T
Outline: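 Readout: time-resolved FRET between Eu cryptate-labeled anti-Ig (1 nM final) and APC-labeled anti-His (20 nM final) antibodies. These detect interaction of Fc-fused PD-1 with His-tagged human PD-L1 in dPBS containing 0.1% BSA and 0.05% Tween-20.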

[2] = biological target: T2, LK35.2-hPD-L1 cells / PE-labeled PD-1-Ig (Homo sapiens, UniProt Q9NZQ7); assay: LK35.2-hPD-L1 cell binding high-content screening assay; assay type: cell-based; conditions: cell line of CBA not given (LK35.2-hPD-L1 or 293T-hPD-L1)
T2 construct: expressed in transfected cells; host or cells: LK35.2 mouse B cell line
Outline: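 Mouse LK35.2 B cells stably overexpressing human PD-L1 were cultured overnight in RPMI with 10% FCS, then given compound and PE-labeled human PD-1-Ig (1 nM final) for 1 h at 37 °C. After three dPBS washes, bound fluorescence was quantified by high-content imaging.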

[3] = cluster symbol, read-out: HTRF IC50 cluster
[4] = cluster symbol, read-out: CBA IC50 cluster

T1 sequence (Q9NZQ7 with tags, fused parts or gaps): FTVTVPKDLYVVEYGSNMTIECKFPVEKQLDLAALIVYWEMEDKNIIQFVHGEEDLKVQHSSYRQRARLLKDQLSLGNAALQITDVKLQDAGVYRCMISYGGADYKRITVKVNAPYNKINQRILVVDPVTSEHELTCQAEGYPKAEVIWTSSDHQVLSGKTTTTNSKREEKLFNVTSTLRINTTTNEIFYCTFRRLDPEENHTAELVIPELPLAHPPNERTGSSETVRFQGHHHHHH
T2 sequence (Q9NZQ7 19-290): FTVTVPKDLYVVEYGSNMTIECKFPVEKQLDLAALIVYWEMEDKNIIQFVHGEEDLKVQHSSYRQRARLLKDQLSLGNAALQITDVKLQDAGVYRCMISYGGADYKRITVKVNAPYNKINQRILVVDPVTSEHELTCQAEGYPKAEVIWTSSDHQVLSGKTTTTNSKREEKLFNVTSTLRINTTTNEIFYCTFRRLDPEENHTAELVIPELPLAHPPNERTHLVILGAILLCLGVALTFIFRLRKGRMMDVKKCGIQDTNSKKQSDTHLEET

## CCCC[C@H]1C(=O)N(C)CC(=O)N[C@@H](CC(=O)O)C(=O)N[C@@H](C(C)C)C(=O)N(C)[C@@H](Cc2ccccc2)C(=O)N[C@@H](Cc2ccc(O)cc2)C(=O)N(C)CC(=O)N[C@@H](Cc2c[nH]c3ccccc23)C(=O)N[C@@H](Cc2ccc(O)cc2)C(=O)N[C@@H](CC(C)C)C(=O)N[C@H](C(=O)NCC(N)=O)CSCC(=O)N[C@@H](Cc2cc(F)c(F)c(F)c2)C(=O)N(C)[C@@H](Cc2ccccc2)C(=O)N1C [Example 3144] ({CH2CO}-[Phe(3,4,5-F3)][NMeF][NMeNle][Sar]DV[NMeF]Y[Sar]WYLCG-NH2; thioether N-13)
[1]; [3]
  pIC50: 7.52 to 8.17
[2]; [4]
  pIC50: 8.33 to 9.80

## CCCC[C@H]1C(=O)N(C)CC(=O)N[C@@H](CC(=O)O)C(=O)N[C@@H](C(C)C)C(=O)N[C@@H](Cc2ccc(Cl)cc2)C(=O)N[C@@H](Cc2ccc(O)cc2)C(=O)N(C)CC(=O)N[C@@H](Cc2c[nH]c3ccccc23)C(=O)N[C@@H](Cc2ccc(O)cc2)C(=O)N[C@@H](CC(C)C)C(=O)N[C@H](C(=O)NCC(N)=O)CSCC(=O)N[C@@H](Cc2ccccc2)C(=O)N(C)[C@@H](Cc2ccccc2)C(=O)N1C [Example 3145] ({CH2CO}-F[NMeF][NMeNle][Sar]DV[Phe(4-Cl)]Y[Sar]WYLCG-NH2; thioether N-13)
[1]; [3]
  pIC50: < 7.52
[2]; [4]
  pIC50: < 7.13

## CCCC[C@H]1C(=O)N(C)CC(=O)N[C@@H](CC)C(=O)N[C@@H](C(C)C)C(=O)N(C)[C@@H](Cc2ccccc2)C(=O)N[C@@H](Cc2ccc(O)cc2)C(=O)N(C)CC(=O)N[C@@H](Cc2c[nH]c3ccccc23)C(=O)N[C@@H](Cc2ccc(O)cc2)C(=O)N[C@@H](CC(C)C)C(=O)N[C@H](C(=O)NCC(N)=O)CSCC(=O)N[C@@H](Cc2ccccc2)C(=O)N(C)[C@@H](Cc2ccccc2)C(=O)N1C [Example 3146] (HELM PEPTIDE1{[O=C(C[*:3])[*:2]].F.[meF].[CCCC[C@@H](C(=O)[*:2])N(C)[*:1]].[Sar].[Abu].V.[meF].Y.[Sar].W.Y.L.C.G.[am]}$PEPTIDE1,PEPTIDE1,1:R3-14:R3$$$V2.0)
[1]; [3]
  pIC50: < 7.52
[2]; [4]
  pIC50: 7.14 to 8.32

## CCCC[C@H]1C(=O)N(C)CC(=O)N[C@@H](CC(=O)O)C(=O)N[C@@H](C(C)C)C(=O)N(C)[C@@H](Cc2ccccc2)C(=O)N[C@@H](Cc2ccc(O)cc2)C(=O)N(C)CC(=O)N[C@@H](Cc2c[nH]c3ccc(O)cc23)C(=O)N[C@@H](Cc2ccc(O)cc2)C(=O)N[C@@H](CC(C)C)C(=O)N[C@H](C(=O)NCC(N)=O)CSCC(=O)N[C@@H](Cc2ccccc2)C(=O)N(C)[C@@H](Cc2ccccc2)C(=O)N1C [Example 3147] ({CH2CO}-F[NMeF][NMeNle][Sar]DV[NMeF]Y[Sar][Trp(5-OH)]YLCG-NH2; thioether N-13)
[1]; read-out: HTRF IC50 value
  pIC50: 6.12
[2]; read-out: CBA IC50 value
  pIC50: 5.76

## CCCC[C@H]1C(=O)N(C)CC(=O)N[C@@H](CC(=O)O)C(=O)N[C@@H](C(C)C)C(=O)N(C)[C@@H](Cc2ccccc2)C(=O)N[C@@H](Cc2c[nH]c3ccc(O)cc23)C(=O)N(C)CC(=O)N[C@@H](Cc2c[nH]c3ccccc23)C(=O)N[C@@H](Cc2ccc(O)cc2)C(=O)N[C@@H](CC(C)C)C(=O)N[C@H](C(=O)NCC(N)=O)CSCC(=O)N[C@@H](Cc2ccccc2)C(=O)N(C)[C@@H](Cc2ccccc2)C(=O)N1C [Example 3148] ({CH2CO}-F[NMeF][NMeNle][Sar]DV[NMeF][Trp(5-OH)][Sar]WYLCG-NH2; thioether N-13)
[1]; [3]
  pIC50: 7.52 to 8.17
[2]; [4]
  pIC50: 7.14 to 8.32

## CCCC[C@H]1C(=O)N(C)CC(=O)N[C@@H](CC(=O)O)C(=O)N[C@@H]([C@@H](C)CC)C(=O)N(C)[C@@H](Cc2ccccc2)C(=O)N[C@@H](Cc2ccc(O)cc2)C(=O)N(C)CC(=O)N[C@@H](Cc2c[nH]c3ccccc23)C(=O)N[C@@H](Cc2ccc(O)cc2)C(=O)N[C@@H](CC(C)C)C(=O)N[C@H](C(=O)NCC(N)=O)CSCC(=O)N[C@@H](Cc2ccccc2)C(=O)N(C)[C@@H](Cc2ccccc2)C(=O)N1C [Example 3149] (HELM PEPTIDE1{[O=C(C[*:3])[*:2]].F.[meF].[CCCC[C@@H](C(=O)[*:2])N(C)[*:1]].[Sar].D.I.[meF].Y.[Sar].W.Y.L.C.G.[am]}$PEPTIDE1,PEPTIDE1,1:R3-14:R3$$$V2.0)
[1]; read-out: HTRF IC50 value
  pIC50: 7.52
[2]; read-out: CBA IC50 value
  pIC50: 8.05

## CCCC[C@H]1C(=O)N(C)CC(=O)N[C@@H](CC(=O)O)C(=O)N[C@@H](CCC(=O)O)C(=O)N(C)[C@@H](Cc2ccccc2)C(=O)N[C@@H](Cc2ccc(O)cc2)C(=O)N(C)CC(=O)N[C@@H](Cc2c[nH]c3ccccc23)C(=O)N[C@@H](Cc2ccc(O)cc2)C(=O)N[C@@H](CC(C)C)C(=O)N[C@H](C(=O)NCC(N)=O)CSCC(=O)N[C@@H](Cc2ccccc2)C(=O)N(C)[C@@H](Cc2ccccc2)C(=O)N1C [Example 3150] (HELM PEPTIDE1{[O=C(C[*:3])[*:2]].F.[meF].[CCCC[C@@H](C(=O)[*:2])N(C)[*:1]].[Sar].D.E.[meF].Y.[Sar].W.Y.L.C.G.[am]}$PEPTIDE1,PEPTIDE1,1:R3-14:R3$$$V2.0)
[1]; [3]
  pIC50: < 7.52
[2]; [4]
  pIC50: < 7.13

## CCCC[C@H]1C(=O)N(C)CC(=O)N[C@@H](CC(=O)O)C(=O)N[C@@H](CCCNC(=N)N)C(=O)N(C)[C@@H](Cc2ccccc2)C(=O)N[C@@H](Cc2ccc(O)cc2)C(=O)N(C)CC(=O)N[C@@H](Cc2c[nH]c3ccccc23)C(=O)N[C@@H](Cc2ccc(O)cc2)C(=O)N[C@@H](CC(C)C)C(=O)N[C@H](C(=O)NCC(N)=O)CSCC(=O)N[C@@H](Cc2ccccc2)C(=O)N(C)[C@@H](Cc2ccccc2)C(=O)N1C [Example 3151] (HELM PEPTIDE1{[O=C(C[*:3])[*:2]].F.[meF].[CCCC[C@@H](C(=O)[*:2])N(C)[*:1]].[Sar].D.R.[meF].Y.[Sar].W.Y.L.C.G.[am]}$PEPTIDE1,PEPTIDE1,1:R3-14:R3$$$V2.0)
[1]; [3]
  pIC50: < 7.52
[2]; [4]
  pIC50: < 7.13

## CCCC[C@H]1C(=O)N(C)CC(=O)N[C@@H](CN)C(=O)N[C@@H](C(C)C)C(=O)N(C)[C@@H](Cc2ccccc2)C(=O)N[C@@H](Cc2ccc(O)cc2)C(=O)N(C)CC(=O)N[C@@H](Cc2c[nH]c3ccccc23)C(=O)N[C@@H](Cc2ccc(O)cc2)C(=O)N[C@@H](CC(C)C)C(=O)N[C@H](C(=O)NCC(N)=O)CSCC(=O)N[C@@H](Cc2ccccc2)C(=O)N(C)[C@@H](Cc2ccccc2)C(=O)N1C [Example 3152] ({CH2CO}-F[NMeF][NMeNle][Sar][Dap]V[NMeF]Y[Sar]WYLCG-NH2; thioether N-13)
[1]; [3]
  pIC50: 7.52 to 8.17
[2]; [4]
  pIC50: 7.14 to 8.32

## CCCC[C@H]1C(=O)N(C)CC(=O)N[C@@H](CCN)C(=O)N[C@@H](C(C)C)C(=O)N(C)[C@@H](Cc2ccccc2)C(=O)N[C@@H](Cc2ccc(O)cc2)C(=O)N(C)CC(=O)N[C@@H](Cc2c[nH]c3ccccc23)C(=O)N[C@@H](Cc2ccc(O)cc2)C(=O)N[C@@H](CC(C)C)C(=O)N[C@H](C(=O)NCC(N)=O)CSCC(=O)N[C@@H](Cc2ccccc2)C(=O)N(C)[C@@H](Cc2ccccc2)C(=O)N1C [Example 3153] (HELM PEPTIDE1{[O=C(C[*:3])[*:2]].F.[meF].[CCCC[C@@H](C(=O)[*:2])N(C)[*:1]].[Sar].[Dab].V.[meF].Y.[Sar].W.Y.L.C.G.[am]}$PEPTIDE1,PEPTIDE1,1:R3-14:R3$$$V2.0)
[1]; [3]
  pIC50: 7.52 to 8.17
[2]; [4]
  pIC50: 7.14 to 8.32

## CCCC[C@H]1C(=O)N(C)CC(=O)N[C@@H](Cc2ccc(O)cc2)C(=O)N[C@@H](C(C)C)C(=O)N(C)[C@@H](Cc2ccccc2)C(=O)N[C@@H](Cc2ccc(O)cc2)C(=O)N(C)CC(=O)N[C@@H](Cc2c[nH]c3ccccc23)C(=O)N[C@@H](Cc2ccc(O)cc2)C(=O)N[C@@H](CC(C)C)C(=O)N[C@H](C(=O)NCC(N)=O)CSCC(=O)N[C@@H](Cc2ccccc2)C(=O)N(C)[C@@H](Cc2ccccc2)C(=O)N1C [Example 3154] (HELM PEPTIDE1{[O=C(C[*:3])[*:2]].F.[meF].[CCCC[C@@H](C(=O)[*:2])N(C)[*:1]].[Sar].Y.V.[meF].Y.[Sar].W.Y.L.C.G.[am]}$PEPTIDE1,PEPTIDE1,1:R3-14:R3$$$V2.0)
[1]; read-out: HTRF IC50 value
  pIC50: 6.64
[2]; read-out: CBA IC50 value
  pIC50: 7.73

## CCCC[C@H]1C(=O)N(C)CC(=O)N[C@@H](CC(=O)O)C(=O)N[C@@H](COC)C(=O)N(C)[C@@H](Cc2ccccc2)C(=O)N[C@@H](Cc2ccc(O)cc2)C(=O)N(C)CC(=O)N[C@@H](Cc2c[nH]c3ccccc23)C(=O)N[C@@H](Cc2ccc(O)cc2)C(=O)N[C@@H](CC(C)C)C(=O)N[C@H](C(=O)NCC(N)=O)CSCC(=O)N[C@@H](Cc2ccccc2)C(=O)N(C)[C@@H](Cc2ccccc2)C(=O)N1C [Example 3155] ({CH2CO}-F[NMeF][NMeNle][Sar]DS(Me)[NMeF]Y[Sar]WYLCG-NH2; thioether N-13)
[1]; [3]
  pIC50: < 7.52
[2]; [4]
  pIC50: < 7.13

## CCCC[C@H]1C(=O)N(C)CC(=O)N[C@@H](CC(=O)O)C(=O)N[C@@H](CO)C(=O)N(C)[C@@H](Cc2ccccc2)C(=O)N[C@@H](Cc2ccc(O)cc2)C(=O)N(C)CC(=O)N[C@@H](Cc2c[nH]c3ccccc23)C(=O)N[C@@H](Cc2ccc(O)cc2)C(=O)N[C@@H](CC(C)C)C(=O)N[C@H](C(=O)NCC(N)=O)CSCC(=O)N[C@@H](Cc2ccccc2)C(=O)N(C)[C@@H](Cc2ccccc2)C(=O)N1C [Example 3156] (HELM PEPTIDE1{[O=C(C[*:3])[*:2]].F.[meF].[CCCC[C@@H](C(=O)[*:2])N(C)[*:1]].[Sar].D.S.[meF].Y.[Sar].W.Y.L.C.G.[am]}$PEPTIDE1,PEPTIDE1,1:R3-14:R3$$$V2.0)
[1]; read-out: HTRF IC50 value
  pIC50: 6.36
[2]; read-out: CBA IC50 value
  pIC50: 5.73

## CCCC[C@H]1C(=O)N(C)CC(=O)N[C@@H](CC(=O)O)C(=O)N[C@@H]([C@@H](C)OC)C(=O)N(C)[C@@H](Cc2ccccc2)C(=O)N[C@@H](Cc2ccc(O)cc2)C(=O)N(C)CC(=O)N[C@@H](Cc2c[nH]c3ccccc23)C(=O)N[C@@H](Cc2ccc(O)cc2)C(=O)N[C@@H](CC(C)C)C(=O)N[C@H](C(=O)NCC(N)=O)CSCC(=O)N[C@@H](Cc2ccccc2)C(=O)N(C)[C@@H](Cc2ccccc2)C(=O)N1C [Example 3157] ({CH2CO}-F[NMeF][NMeNle][Sar]DT(Me)[NMeF]Y[Sar]WYLCG-NH2; thioether N-13)
[1]; [3]
  pIC50: 7.52 to 8.17
[2]; [4]
  pIC50: 7.14 to 8.32
